Our source for the IC50 values is US12612380B2, “Non-lysosomal glucosylceramidase inhibitors and uses thereof” (ALECTOS THERAPEUTICS INC., priority 2019, dated 2026).

Molecules are shown by their SMILES. pIC50: −log10 of the molar value.

The target of the assay is T1, GBA2 (Homo sapiens, UniProt Q9HCG7).
T1 sequence (Q9HCG7 1-927): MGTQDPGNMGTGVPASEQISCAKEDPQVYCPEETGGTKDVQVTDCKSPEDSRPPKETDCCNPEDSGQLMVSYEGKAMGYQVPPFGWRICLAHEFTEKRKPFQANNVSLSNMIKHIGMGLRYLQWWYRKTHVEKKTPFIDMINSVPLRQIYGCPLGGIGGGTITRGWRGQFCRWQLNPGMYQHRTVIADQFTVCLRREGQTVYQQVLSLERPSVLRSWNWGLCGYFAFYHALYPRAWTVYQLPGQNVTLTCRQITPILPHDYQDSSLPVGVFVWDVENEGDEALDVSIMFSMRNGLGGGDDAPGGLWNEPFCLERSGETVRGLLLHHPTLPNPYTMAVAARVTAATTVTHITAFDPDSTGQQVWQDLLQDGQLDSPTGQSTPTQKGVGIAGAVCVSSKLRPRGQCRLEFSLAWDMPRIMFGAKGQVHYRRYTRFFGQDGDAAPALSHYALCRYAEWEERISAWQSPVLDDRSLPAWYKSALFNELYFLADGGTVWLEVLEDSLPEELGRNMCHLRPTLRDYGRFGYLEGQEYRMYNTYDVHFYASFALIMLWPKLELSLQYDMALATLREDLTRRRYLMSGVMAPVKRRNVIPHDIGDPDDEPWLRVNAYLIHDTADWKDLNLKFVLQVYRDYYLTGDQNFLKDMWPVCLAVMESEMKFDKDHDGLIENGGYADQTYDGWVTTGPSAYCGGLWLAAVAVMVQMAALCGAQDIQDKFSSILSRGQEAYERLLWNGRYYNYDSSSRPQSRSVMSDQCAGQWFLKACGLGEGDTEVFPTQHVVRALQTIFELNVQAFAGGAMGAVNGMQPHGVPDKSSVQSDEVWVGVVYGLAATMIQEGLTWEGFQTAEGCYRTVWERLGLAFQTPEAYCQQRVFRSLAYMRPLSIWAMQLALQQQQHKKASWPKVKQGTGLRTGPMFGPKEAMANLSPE
Nature of the assay: Determination of IC50 values for inhibition of GBA2 in cell lysate. It is filed as biochemical. Particulars: cellular homogenate of HEK293T cells overexpressing human GBA2, 250 μM 4-methylumbelliferone-β-D glucopyranoside, pH 5.5, 37° C., GCase inhibitor present; read-out: GBA2 IC50. Also noted: host or cells: HEK293T (lentiviral transduction, puromycin selection); used as cellular homogenate. The method, boiled down: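 Fluorogenic 4-MU-β-glucoside (250 μM) turnover over 20 min at 37 °C, pH 5.5, measured after NaOH/glycine stop (ex 365, em 450 nm). Enzyme source: lysate (0.083 mg/mL) of lentivirally transduced GBA2-HEK293T, GCase blocked by 20 μM azaspiro-octanediol; compound preincubated 5 min; IC50 = 50% inhibition concentration.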
For orientation: pIC50 means −log10 of the IC50, conventionally taken in molar units. For `C[C@@H]1[C@@H](O)[C@H](O)[C@@H](O)CN1CC1CCN(C(=O)C2CCC2)CC1` [Example 99, cyclobutyl(4-(((2R,3R,4R,5S)-3,4,5-trihydroxy-2-methylpiperidin-1-yl)methyl)piperidin-1-yl)methanone], the negative-log IC50 (pIC50) is 6.00 to 7.00. For `C[C@@H]1[C@@H](O)[C@H](O)[C@@H](O)CN1CC1CCN(C(=O)C2CCCC2)CC1` [Example 100, cyclopentyl(4-(((2R,3R,4R,5S)-3,4,5-trihydroxy-2-methylpiperidin-1-yl)methyl)piperidin-1-yl)methanone], the negative-log IC50 (pIC50) is 6.00 to 7.00. Consider `C[C@@H]1[C@@H](O)[C@H](O)[C@@H](O)CN1CC1CCN(C(=O)C2CCCCC2)CC1` [Example 101, cyclohexyl(4-(((2R,3R,4R,5S)-3,4,5-trihydroxy-2-methylpiperidin-1-yl)methyl)piperidin-1-yl)methanone], for which the negative-log IC50 (pIC50) was 6.00 to 7.00. With `C[C@@H]1[C@@H](O)[C@H](O)[C@@H](O)CN1CC1CCN(C(=O)[C@H]2CC[C@@H](C(C)(C)C)CC2)CC1` [Example 102, ((1s,4S)-4-(tert-butyl)cyclohexyl)(4-(((2R,3R,4R,5S)-3,4,5-trihydroxy-2-methylpiperidin-1-yl)methyl)piperidin-1-yl)methanone] the figure was above 7.00; with `C[C@@H]1[C@@H](O)[C@H](O)[C@@H](O)CN1CC1CCN(C(=O)[C@H]2CC[C@H](C(C)(C)C)CC2)CC1` [Example 103, ((1r,4R)-4-(tert-butyl)cyclohexyl)(4-(((2R,3R,4R,5S)-3,4,5-trihydroxy-2-methylpiperidin-1-yl)methyl)piperidin-1-yl)methanone], above 7.00. With `COC1CCC(C(=O)N2CCC(CN3C[C@H](O)[C@@H](O)[C@H](O)[C@H]3C)CC2)CC1` (stereo partly drawn) [Example 104, (4-methoxycyclohexyl)(4-(((2R,3R,4R,5S)-3,4,5-trihydroxy-2-methylpiperidin-1-yl)methyl)piperidin-1-yl)methanone] the figure was 4.60 to 6.00. As for `C[C@@H]1[C@@H](O)[C@H](O)[C@@H](O)CN1CC1CCN(C(=O)C2CCC(C(F)(F)F)CC2)CC1` (stereo partly drawn) [Example 105, (4-(trifluoromethyl)cyclohexyl)(4-(((2R,3R,4R,5S)-3,4,5-trihydroxy-2-methylpiperidin-1-yl)methyl)piperidin-1-yl)methanone], the pIC50 was above 7.00. As for `C[C@@H]1[C@@H](O)[C@H](O)[C@@H](O)CN1CC1CCN(C(=O)c2ccccc2)CC1` [Example 106, phenyl(4-(((2R,3R,4R,5S)-3,4,5-trihydroxy-2-methylpiperidin-1-yl)methyl)piperidin-1-yl)methanone], the negative logarithm of the IC50 (pIC50) is 6.00 to 7.00. Regarding `C[C@@H]1[C@@H](O)[C@H](O)[C@@H](O)CN1CC1CCN(C(=O)c2cccc(C(F)(F)F)c2)CC1` [Example 107, (3-(trifluoromethyl)phenyl)(4-(((2R,3R,4R,5S)-3,4,5-trihydroxy-2-methylpiperidin-1-yl)methyl)piperidin-1-yl)methanone], the pIC50 was above 7.00.

As for `C[C@@H]1[C@@H](O)[C@H](O)[C@@H](O)CN1CC1CCN(C(=O)Cc2ccccc2)CC1` [Example 108, 2-phenyl-1-(4-(((2R,3R,4R,5S)-3,4,5-trihydroxy-2-methylpiperidin-1-yl)methyl)piperidin-1-yl)ethanone], the pIC50 is 6.00 to 7.00. With `C[C@@H]1[C@@H](O)[C@H](O)[C@@H](O)CN1CC1CCN(C(=O)c2ccsc2)CC1` [Example 109, thiophen-3-yl(4-(((2R,3R,4R,5S)-3,4,5-trihydroxy-2-methylpiperidin-1-yl)methyl)piperidin-1-yl)methanone] the figure was 6.00 to 7.00. As for `C[C@@H]1[C@@H](O)[C@H](O)[C@@H](O)CN1CC1CCN(C(=O)NC2CCCCC2)CC1` [Example 110, N-cyclohexyl-4-(((2R,3R,4R,5S)-3,4,5-trihydroxy-2-methylpiperidin-1-yl)methyl)piperidine-1-carboxamide], the negative-log IC50 (pIC50) is 6.00 to 7.00. With `C[C@@H]1[C@@H](O)[C@H](O)[C@@H](O)CN1CC1CCN(C(=S)NC2CCCCC2)CC1` [Example 111, N-cyclohexyl-4-(((2R,3R,4R,5S)-3,4,5-trihydroxy-2-methylpiperidin-1-yl)methyl)piperidine-1-carbothioamide] the figure was 6.00 to 7.00; with `C[C@@H]1[C@@H](O)[C@H](O)[C@@H](O)CN1CC1CN([C@H]2CCCC[C@H]2C(F)(F)F)C1` [Example 112, (2R,3R,4R,5S)-2-methyl-1-((1-((1S,2R)-2-(trifluoromethyl)cyclohexyl)azetidin-3-yl)methyl)piperidine-3,4,5-triol], 4.60 to 6.00. As to `C[C@@H]1[C@@H](O)[C@H](O)[C@@H](O)CN1C[C@H]1CCN(c2ccccc2)C1` [Example 113, (2R,3R,4R,5S)-2-methyl-1-(((R)-1-phenylpyrrolidin-3-yl)methyl)piperidine-3,4,5-triol], the pIC50 was above 7.00. As for `C[C@@H]1[C@@H](O)[C@H](O)[C@@H](O)CN1C[C@H]1CCN(c2cc(C(F)(F)F)ccn2)C1` [Example 121, (2R,3R,4R,5S)-2-methyl-1-(((R)-1-(4-(trifluoromethyl)pyridin-2-yl)pyrrolidin-3-yl)methyl)piperidine-3,4,5-triol], the negative logarithm of the IC50 (pIC50) was above 7.00. With `C[C@@H]1[C@@H](O)[C@H](O)[C@@H](O)CN1C[C@H]1CCN(c2cccnc2)C1` [Example 122, (2R,3R,4R,5S)-2-methyl-1-(((R)-1-(pyridin-3-yl)pyrrolidin-3-yl)methyl)piperidine-3,4,5-triol] the figure was 4.60 to 6.00; with `Cc1ccncc1N1CC[C@H](CN2C[C@H](O)[C@@H](O)[C@H](O)[C@H]2C)C1` [Example 123, (2R,3R,4R,5S)-2-methyl-1-(((R)-1-(4-methylpyridin-3-yl)pyrrolidin-3-yl)methyl)piperidine-3,4,5-triol], 6.00 to 7.00. Turning to `C[C@@H]1[C@@H](O)[C@H](O)[C@@H](O)CN1C[C@H]1CCN(c2cnccc2C(F)(F)F)C1` [Example 124, (2R,3R,4R,5S)-2-methyl-1-(((R)-1-(4-(trifluoromethyl)pyridin-3-yl)pyrrolidin-3-yl)methyl)piperidine-3,4,5-triol], the pIC50 is above 7.00. With `C[C@@H]1[C@@H](O)[C@H](O)[C@@H](O)CN1C[C@H]1CCN(c2cncc(C(F)(F)F)c2)C1` [Example 125, (2R,3R,4R,5S)-2-methyl-1-(((R)-1-(5-(trifluoromethyl)pyridin-3-yl)pyrrolidin-3-yl)methyl)piperidine-3,4,5-triol] the figure was above 7.00; with `C[C@@H]1[C@@H](O)[C@H](O)[C@@H](O)CN1C[C@H]1CCN(c2cccnc2C(F)(F)F)C1` [Example 126, (2R,3R,4R,5S)-2-methyl-1-(((R)-1-(2-(trifluoromethyl)pyridin-3-yl)pyrrolidin-3-yl)methyl)piperidine-3,4,5-triol], above 7.00; with `C[C@@H]1[C@@H](O)[C@H](O)[C@@H](O)CN1C[C@H]1CCN(c2cncnc2C(F)(F)F)C1` [Example 127, (2R,3R,4R,5S)-2-methyl-1-(((R)-1-(4-(trifluoromethyl)pyrimidin-5-yl)pyrrolidin-3-yl)methyl)piperidine-3,4,5-triol], above 7.00. `C[C@@H]1[C@@H](O)[C@H](O)[C@@H](O)CN1C[C@H]1CCN(c2ccsc2)C1` [Example 128, (2R,3R,4R,5S)-2-methyl-1-(((R)-1-(thiophen-3-yl)pyrrolidin-3-yl)methyl)piperidine-3,4,5-triol]: the pIC50 was above 7.00. Regarding `C[C@@H]1[C@@H](O)[C@H](O)[C@@H](O)CN1C[C@H]1CCN(C(=O)c2ccc(C(F)(F)F)cc2)C1` [Example 130, (4-(trifluoromethyl)phenyl)((R)-3-(((2R,3R,4R,5S)-3,4,5-trihydroxy-2-methylpiperidin-1-yl)methyl)pyrrolidin-1-yl)methanone], the negative-log IC50 (pIC50) is above 7.00.

In the case of `C[C@@H]1[C@@H](O)[C@H](O)[C@@H](O)CN1C[C@@H]1CCN(c2ncccc2C(F)(F)F)C1` [Example 132, (2R,3R,4R,5S)-2-methyl-1-(((S)-1-(3-(trifluoromethyl)pyridin-2-yl)pyrrolidin-3-yl)methyl)piperidine-3,4,5-triol], the negative-log IC50 (pIC50) was above 7.00. Regarding `C[C@@H]1[C@@H](O)[C@H](O)[C@@H](O)CN1C[C@@H]1CCN(c2cnccc2C(F)(F)F)C1` [Example 133, (2R,3R,4R,5S)-2-methyl-1-(((S)-1-(4-(trifluoromethyl)pyridin-3-yl)pyrrolidin-3-yl)methyl)piperidine-3,4,5-triol], the pIC50 was above 7.00.
